Measured values as given in patent publication US11691965B2, “Method for preparing pyrrolidinyl urea derivative” (ZHANGZHOU PIEN TZE HUANG PHARMACEUTICAL CO., LTD., priority 2020, dated 2023).

Assays:
[1] = In vivo pharmacokinetics study after single administration in Beagle dogs
Description: Experimental Example 4: In Vivo Pharmacokinetics Study after Single Administration in Beagle Dogs
Male Beagle dogs were used as the test animals, and the plasma concentrations of the compounds were determined after a single administration and the pharmacokinetic behavior was evaluated.
Beagle (male, 6 to 12 kg, more than 6 months old, Beijing Mars Biotechnology Co., Ltd.)
The purpose of the experiment was to test the pharmacokinetic characteristics of the tested compounds in non-rodents after intravenous injection and oral administration, in the experiment, the tested compounds were prepared into a clear solution or a homogeneous suspension, and the beagle dogs were given a single intravenous injection or oral administration. In the intravenous injection group, the solvent was a certain proportion of HP-β-cyclodextrin solution of dimethyl sulfoxide or a certain proportion of ethanol, and a normal saline solution of polyethylene glycol 400, vortexed and ultrasonicated to prepare a […] clear solution and filtered by microporous membrane for later use; oral solvent was a certain proportion of HP-β cyclodextrin solution of dimethyl sulfoxide or a certain proportion of sodium carboxymethyl cellulose solution, after the compound to be tested was mixed with the solvent, the solvent was vortexed and ultrasonicated to prepare a 3 mg/mL uniform suspension for later use.
(§1) C0 is the initial concentration, T1/2 is the elimination half-life, Vdss is the steady-state apparent volume of distribution, Cl is the total clearance, and AUC0-inf is area under the plasma drug concentration-time curve from 0 time to extrapolation to infinity area, Cmax is the peak concentration, and Tmax is the peak time.

CYP2C19 = CYP2C19 (Homo sapiens (Human), UniProt P33261); assay: Cytochrome P450 isoenzyme inhibitory activity test (human liver microsomes); format: in vitro ADME; conditions: heading: Cytochrome P450 isoenzyme IC50 CYP2C19, 37° C., 10 minutes
Description: (§2) Experimental Example 2: Cytochrome P450 Isoenzyme Inhibitory Activity Test The inhibitory activities of test compound against different isoforms of human cytochrome P450 isoenzymes were determined. The test compound, standard inhibitor (100×final concentration) and mixed substrate working solution were prepared; the microsome frozen in −80° C. refrigerator was taken out and thawed. 2 μL of the compound to be tested and standard inhibitor solution were added to the corresponding wells, and at the same time, 2 μL of the corresponding solvent was added to the non-inhibitor control wells (NIC) and the blank control wells; secondly, 20 μL of mixed substrate solution was added to the corresponding wells except the blank wells (20 μL of Pb was added to the blank wells); human liver microsome solution was prepared (the solution was put back in the refrigerator immediately after using and marking the date), and then 158 μL of human liver microsome solution was added to all wells; the sample plate was put in a 37° C. water bath for pre-incubation, and then a coenzyme factor (NADPH) solution was prepared; after 10 minutes, 20 μL of NADPH solution was added to all wells, the sample plate was shaken well, and incubated in a 37° C. water bath for 10 minutes; at the corresponding time point, 400 μL of cold acetonitrile solution (internal standard is 200 ng/mL tolbutamide and labetalol) was added to terminate the reaction; after the plates were evenly mixed, the mixture was centrifuged at 4000 rpm for 20 minutes to precipitate protein; 200 μL of supernatant was added into 100 μL of water, shaken well and detected by LC/MS/MS.

CYP2D6 = CYP2D6 (Homo sapiens (Human), UniProt P10635); assay: as above; format: in vitro ADME; conditions: heading: Cytochrome P450 isoenzyme IC50 CYP2D6, 37° C., 10 minutes
Description: as §2

CYP2C9 = CYP2C9 (Homo sapiens (Human), UniProt P11712); assay: as above; format: in vitro ADME; conditions: heading: Cytochrome P450 isoenzyme IC50 CYP2C9, 37° C., 10 minutes
Description: as §2

CYP3A4 = CYP3A4 (Homo sapiens (Human), UniProt P08684); assay: as above; format: in vitro ADME; conditions: heading: Cytochrome P450 isoenzyme IC50 CYP3A4, 37° C., 10 minutes
Description: as §2

CYP1A2 = CYP1A2 (Homo sapiens (Human), UniProt P05177); format: in vitro ADME; conditions: microsomes, 10 min
Description: (§3) Experimental Example 2: Cytochrome P450 Isoenzyme Inhibitory Activity Test The inhibitory activities of test compound against different isoforms of human cytochrome P450 isoenzymes were determined. The test compound, standard inhibitor (100×final concentration) and mixed substrate working solution were prepared; the microsome frozen in −80° C. refrigerator was taken out and thawed. […]

[2] = In vivo pharmacokinetics study after single administration in rats; design: species or system Sprague Dawley rats
Description: Experimental Example 3: In Vivo Pharmacokinetics Study after Single Administration in Rats
Male SD rats were used as the test animals, and the plasma concentrations of the compound were determined after a single administration and the pharmacokinetic behavior was evaluated.
Sprague Dawley rats (male, 200 to 300 g, 7 to 9 weeks old, Shanghai Charles River Laboratory Animal Co., LTD.)
Standard protocols were used to test the pharmacokinetic characteristics of the tested compounds in rodents after intravenous injection and oral administration, in the experiment, the tested compounds were prepared into a clear solution or a homogeneous suspension, and the rats were given a single intravenous injection and oral administration. In the intravenous injection group, the solvent was a certain proportion of ethanol and normal saline solution or a certain proportion of HP-β cyclodextrin solution of dimethyl sulfoxide (the pH was adjusted 3 to 4), the mixture was vortex-stirred to prepare 1 mg/mL clear solution and filtered by a microporous membrane for later use; oral solvent was a certain proportion of sodium carboxymethyl cellulose solution or a certain proportion of HP-β cyclodextrin solution of dimethyl sulfoxide (the pH was adjusted to above 4), after the compound to be tested was mixed with the solvent, the mixture was vortex-stirred to obtain a uniform suspension of 30 mg/mL for later use.
as §1

[3] = tested on: human cytochrome P450 isoenzymes; assay: Cytochrome P450 isoenzyme inhibitory activity test, overall conclusion; format: in vitro ADME; conditions: human liver microsomes
Description: as §3

TrkA = TrkA (Homo sapiens (Human), UniProt P04629); assay: TrkA enzyme activity test; format: biochemical
Description: Experimental Example 1: TrkA Enzyme Activity Test
TK detection kit Cisbio-62TK0PEJ
Detection plate PerkinElmer-6007299
Envision PerkinElmer-2104
20 mM Hepes (pH 7.5), 10 mM MgCl2 (magnesium chloride), 1 mM EGTA, 0.01% Brij35, 0.1 mM Orthovanadate (sodium vanadate), 0.02 g/mL BSA (bovine serum protein), 2 mM DTT (dithiothreitol), 1% DMSO
This experiment was performed using Cisbio's homogeneous time-resolved fluorescence conjugate energy transfer (HTRF® method) for activity detection. In the detection plate, enzyme, biotin-labeled peptide substrate, ATP and detection compound were mixed and incubated for reaction. […] The data were represented by fluorescence signal readings at 665 nm and 620 nm respectively, with a high ratio of 665 nm/620 nm indicating high activity and a low ratio of 665 nm/620 nm indicating inhibition of activity. […]
In a 10 μL reaction system with a buffer of 20 mM Hepes (pH 7.5), 10 mM MgCl2, 1 mM EGTA, 0.01% Brij35, 0.1 mM sodium vanadate, 0.02 g/mL BSA, 2 mM DTT, 1% DMSO medium, containing 15 nM TrkA kinase, 0.3 μM biotin-TK peptide (biotin-labeled tyrosine kinase substrate polypeptide), 100 μM ATP were incubated at 23° C. for 120 minutes. […]

[4] = dog, plasma, 2 mg/kg, male Beagle dogs, 2 mpk intravenous injection
[5] = dog, plasma, 15 mg/kg, male Beagle dogs, 15 mpk oral
[6] = Sprague Dawley, rat, plasma, 2 mg/kg, male rats, 2 mpk intravenous injection
[7] = Sprague Dawley, rat, plasma, 300 mg/kg, male rats, 300 mpk oral

TrkA, sequence (P04629 440-796): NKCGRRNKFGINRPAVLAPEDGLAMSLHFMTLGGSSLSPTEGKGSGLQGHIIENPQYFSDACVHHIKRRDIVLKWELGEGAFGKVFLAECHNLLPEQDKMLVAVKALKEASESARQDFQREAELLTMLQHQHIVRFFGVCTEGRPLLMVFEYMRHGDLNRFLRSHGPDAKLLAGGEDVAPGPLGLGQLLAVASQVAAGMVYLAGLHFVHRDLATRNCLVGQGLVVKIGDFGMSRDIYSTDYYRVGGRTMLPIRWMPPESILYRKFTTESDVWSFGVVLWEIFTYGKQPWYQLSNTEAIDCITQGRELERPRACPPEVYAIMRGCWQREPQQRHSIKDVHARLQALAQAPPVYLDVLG
CYP1A2, sequence (P05177 whole entry, canonical isoform): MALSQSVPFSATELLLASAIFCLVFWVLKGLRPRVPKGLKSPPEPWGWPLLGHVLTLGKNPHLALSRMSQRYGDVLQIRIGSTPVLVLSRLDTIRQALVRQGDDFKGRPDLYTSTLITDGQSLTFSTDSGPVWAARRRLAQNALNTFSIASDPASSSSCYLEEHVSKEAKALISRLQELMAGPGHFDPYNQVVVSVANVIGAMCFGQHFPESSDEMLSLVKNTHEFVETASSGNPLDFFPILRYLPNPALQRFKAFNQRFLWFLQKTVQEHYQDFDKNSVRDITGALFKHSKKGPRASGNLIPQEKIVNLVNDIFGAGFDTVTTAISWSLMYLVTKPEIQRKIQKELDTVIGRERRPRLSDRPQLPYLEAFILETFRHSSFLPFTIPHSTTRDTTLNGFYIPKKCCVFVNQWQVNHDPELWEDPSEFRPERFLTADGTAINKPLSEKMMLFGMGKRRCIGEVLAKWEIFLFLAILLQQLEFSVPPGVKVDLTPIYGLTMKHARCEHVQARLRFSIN
CYP2C9, sequence (P11712 whole entry): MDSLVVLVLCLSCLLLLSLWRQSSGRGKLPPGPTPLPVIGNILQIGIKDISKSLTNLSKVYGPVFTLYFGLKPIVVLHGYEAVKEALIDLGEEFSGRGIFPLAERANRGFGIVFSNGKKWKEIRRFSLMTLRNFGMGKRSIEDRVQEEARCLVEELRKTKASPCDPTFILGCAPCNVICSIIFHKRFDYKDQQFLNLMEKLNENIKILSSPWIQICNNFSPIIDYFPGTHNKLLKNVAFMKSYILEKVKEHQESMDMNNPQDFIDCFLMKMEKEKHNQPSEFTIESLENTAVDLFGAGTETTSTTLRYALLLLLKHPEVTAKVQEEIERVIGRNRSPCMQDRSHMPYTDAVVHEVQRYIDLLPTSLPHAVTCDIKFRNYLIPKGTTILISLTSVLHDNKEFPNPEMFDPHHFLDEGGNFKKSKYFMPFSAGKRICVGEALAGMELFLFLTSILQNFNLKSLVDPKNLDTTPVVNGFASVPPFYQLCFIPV
CYP2D6, sequence (P10635 whole entry): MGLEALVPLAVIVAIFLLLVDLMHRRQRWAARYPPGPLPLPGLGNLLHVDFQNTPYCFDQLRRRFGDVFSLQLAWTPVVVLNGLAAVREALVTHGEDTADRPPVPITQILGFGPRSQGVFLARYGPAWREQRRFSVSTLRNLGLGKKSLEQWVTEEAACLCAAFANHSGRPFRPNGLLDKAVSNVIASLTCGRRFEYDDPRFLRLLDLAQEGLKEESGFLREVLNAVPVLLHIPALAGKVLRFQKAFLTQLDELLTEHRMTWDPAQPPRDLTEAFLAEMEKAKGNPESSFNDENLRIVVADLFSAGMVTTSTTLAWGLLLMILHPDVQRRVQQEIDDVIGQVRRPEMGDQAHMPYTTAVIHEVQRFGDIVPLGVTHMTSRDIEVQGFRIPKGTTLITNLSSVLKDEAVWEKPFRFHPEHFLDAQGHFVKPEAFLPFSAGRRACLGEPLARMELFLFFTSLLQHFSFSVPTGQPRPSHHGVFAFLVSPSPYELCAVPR
CYP3A4, sequence (P08684 whole entry): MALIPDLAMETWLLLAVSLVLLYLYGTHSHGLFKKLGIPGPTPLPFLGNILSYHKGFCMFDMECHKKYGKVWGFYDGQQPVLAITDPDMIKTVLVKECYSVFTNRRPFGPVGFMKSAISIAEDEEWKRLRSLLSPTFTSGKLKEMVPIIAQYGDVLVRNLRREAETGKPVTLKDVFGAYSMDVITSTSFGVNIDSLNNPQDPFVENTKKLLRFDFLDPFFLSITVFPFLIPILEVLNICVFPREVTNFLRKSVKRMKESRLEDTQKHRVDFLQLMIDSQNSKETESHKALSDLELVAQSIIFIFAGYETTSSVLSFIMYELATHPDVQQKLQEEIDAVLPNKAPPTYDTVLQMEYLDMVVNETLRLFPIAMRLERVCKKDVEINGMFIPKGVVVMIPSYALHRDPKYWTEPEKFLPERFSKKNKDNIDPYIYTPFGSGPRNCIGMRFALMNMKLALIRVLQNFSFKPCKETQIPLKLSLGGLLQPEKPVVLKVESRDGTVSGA
CYP2C19, sequence (P33261 whole entry, canonical isoform): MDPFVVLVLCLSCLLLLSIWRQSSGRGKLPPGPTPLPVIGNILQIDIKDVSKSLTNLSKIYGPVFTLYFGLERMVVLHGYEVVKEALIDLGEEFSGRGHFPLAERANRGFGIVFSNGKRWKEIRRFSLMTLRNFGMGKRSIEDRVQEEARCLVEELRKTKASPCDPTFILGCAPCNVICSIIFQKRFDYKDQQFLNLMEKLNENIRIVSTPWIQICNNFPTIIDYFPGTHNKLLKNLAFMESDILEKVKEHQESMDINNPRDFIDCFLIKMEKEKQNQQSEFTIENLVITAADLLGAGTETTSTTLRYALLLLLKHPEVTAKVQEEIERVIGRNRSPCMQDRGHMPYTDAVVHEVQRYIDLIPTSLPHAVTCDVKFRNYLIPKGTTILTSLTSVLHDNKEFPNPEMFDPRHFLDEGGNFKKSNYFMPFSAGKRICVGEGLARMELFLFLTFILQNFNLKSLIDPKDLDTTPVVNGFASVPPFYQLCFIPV

## COCCN1C[C@@H](n2ccc(F)c2)[C@H](NC(=O)Nc2c(C)c(-c3cnc(C4(F)COC4)nc3)nn2-c2ccccc2)C1 [Compounds of formula (1)]
[1]; beagle dogs
  pharmacokinetic properties and oral bioavailability (in words): good pharmacokinetic properties and oral bioavailability
[1]; [4]
  AUC(0-inf): 1840 ng·h/mL
  C0: 3940 ng/mL
  clearance: 18.4 mL/min/kg
  half-life: 0.72 h
[1]; dog, plasma, 2 mg/kg, male Beagle dogs, 2 mpk intravenous injection, read-out: Vdss
  Vd: 0.71 L/kg
[1]; [5]
  AUC(0-inf): 12600 ng·h/mL
  Cmax: 4560 ng/mL
  Tmax: 1 h
  bioavailability: 91.3%
  half-life: 1.2 h
CYP2C19
  IC50: > 50 µM
CYP2D6
  IC50: 31.7 µM
CYP2C9
  IC50: 43.6 µM
CYP3A4
  IC50: > 50 µM
CYP1A2
  IC50: > 0.05 µM
[2]; [6]
  AUC(0-inf): 1970 ng·h/mL
  C0: 3620 ng/mL
  clearance: 17.1 mL/min/kg
  half-life: 0.61 h
[2]; Sprague Dawley, rat, plasma, 2 mg/kg, male rats, 2 mpk intravenous injection, read-out: Vdss
  Vd: 0.7 L/kg
[2]; [7]
  AUC(0-inf): 210000 ng·h/mL
  Cmax: 47600 ng/mL
  Tmax: 1.5 h
  bioavailability: 71.1%
  half-life: 1.7 h
[2]; rats
  pharmacokinetic properties and oral bioavailability (in words): good pharmacokinetic properties and oral bioavailability
[3]
  risk of drug-drug interaction (in words): lower risk of drug-drug interaction
TrkA
  inhibitory effect on TrkA enzyme (in words): significant inhibitory effect
TrkA; 15 nM TrkA kinase, 100 μM ATP, 23° C., 120 minutes, read-out: Trk AIC50
  IC50: 0.00664 µM
